Among the data in PubChem BioAssay (NCI) are TGI values, retold here.

Experiment in all cases: NCI tumour cell line growth inhibition, 48 h
Assay [1] relates to ACHN renal.
Assay [2] has as its system PC-3 prostate.
Assay [3] concerns HCT-116 colon.
The test system of assay [4] is A498 renal.
The test system of assay [5] is MDA-N.
Assay [6] has as its system TK-10 renal.
For assay [7], the system named is RXF 393 renal.
For assay [8], the system named is HCT-15 colon.
For assay [9], the system named is M14 melanoma.
In assay [10] the test system is OVCAR-8 ovarian.
Assay [11] relates to UACC-257 melanoma.
The test system of assay [12] is SK-MEL-5 melanoma.
The test system of assay [13] is OVCAR-4 ovarian.
Assay [14] concerns SK-MEL-28 melanoma.
The test system of assay [15] is SNB-19 CNS.
Assay [16] has as its system HOP-62 NSCLC.
The test system of assay [17] is U251 CNS.
Assay [18] concerns HOP-92 NSCLC.
For assay [19], the system named is HT29 colon.
Assay [20] concerns SNB-75 CNS.

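Values below derive from 48-hour exposures of cells grown in 96-well plates, with endpoints linearly interpolated between the two concentrations bracketing the appropriate inhibition level. TGI: concentration producing complete growth inhibition.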

Turning to `CN=C(N)N/N=C(\C)c1ccc2oc3ccc(/C(C)=N/NC(N)=NC)cc3c2c1`, the TGI in assay [1] was over 48.8 µM; in assay [2] it was 10.7 µM; in [3], over 100 µM; in [4] it was over 31.3 µM; in [5], over 30.6 µM; in assay [6], over 100 µM. Besides, the TGI in [7] is over 50.7 µM; in assay [8], over 100 µM; in assay [9], over 100 µM; in [10], over 100 µM; in assay [11] it was over 68.1 µM; in assay [12], over 100 µM. In addition, the TGI in assay [13], in [14] and in assay [15] was over 100 µM each time.
On to `O=C(Nc1ccc([N+](=O)[O-])cc1)C(=O)C(C(=O)c1ccccc1F)C1OC(=O)c2ccccc21` (stereo not drawn), for which the TGI in assay [16] is over 100 µM; in assay [17], 39.9 µM; in assay [1] it was over 100 µM; in [3], over 100 µM; in assay [4] it was over 100 µM; in [18], over 100 µM. For the same compound, the TGI in assay [19] is over 100 µM; in [6], over 100 µM; in assay [7], 79.6 µM; in assay [8] it was over 100 µM; in [9] it was over 100 µM; in assay [10] it was over 100 µM. Moreover, the TGI in [11] is over 100 µM; in assay [12], over 100 µM; in [13], over 100 µM; in assay [14], over 100 µM; in [15] it was over 100 µM; in assay [20], 96.4 µM.
In the case of `COC(=O)c1cc(-c2c[nH]cc2C(=O)OCc2ccccc2)cn1S(=O)(=O)c1ccc(C)cc1`, the TGI in assay [16], in [1], in [2], in [3], in assay [4] and in assay [19] was over 100 µM each time. The TGI in assay [5], in [6], in assay [7], in [8], in assay [9] and in assay [10] was over 100 µM throughout. The TGI in assay [11], in assay [12], in [13], in assay [15] and in assay [20] was over 100 µM each time.
Take `CCOC(=O)N1CCN(C(=O)Nc2cccc3ccccc23)CC1`: the TGI in assay [16], in assay [17], in [1], in assay [2], in assay [3] and in assay [4] was over 10 µM each time. In addition, the TGI in assay [19], in [5], in [6], in assay [7], in [8] and in assay [9] was over 10 µM throughout. For the same compound, the TGI in [10], in [12], in assay [13], in assay [14], in assay [15] and in assay [20] was over 10 µM each time.
In the case of `Cc1ccc(-n2cnc3c(N/N=C4\SCC(=O)N4c4ccccc4)ncnc32)cc1`, the TGI was 28.9 µM in assay [16]; 16.2 µM in [17]; 18.6 µM in [1]; 17.8 µM in [2]; 13 µM in assay [3]; 27.2 µM in assay [4]. The TGI in [18] was found to be 11.3 µM; in assay [19] it was 15 µM; in [6] it was 14.3 µM; in assay [7], 5.8 µM; in assay [8], 11.5 µM; in [9] it was 13.4 µM. For the same compound, the TGI was found to be 11.8 µM in [10]; 18.3 µM in [11]; 16 µM in [12]; 21.2 µM in assay [13]; 11.4 µM in assay [14]; 24.4 µM in [15].
On to `CN1CN(c2ccccc2)C2(CCN(CCCC(=O)c3cccs3)CC2)C1=O`, for which the TGI in assay [16] was 37.4 µM; in assay [17] it was over 100 µM; in [1] it was over 100 µM; in [2], over 100 µM; in assay [3], over 100 µM; in assay [19], 73.6 µM. Also, the TGI is over 100 µM in assay [5]; 87.6 µM in [6]; over 100 µM in [7]; over 100 µM in assay [8]; over 100 µM in assay [9]; over 100 µM in [10]. Besides, the TGI was 90.6 µM in assay [11]; 65 µM in [12]; over 100 µM in assay [14]; over 100 µM in assay [15]; over 100 µM in assay [20].
On to `O=C(CC(C(=O)c1ccsc1)c1ccccc1)c1cccs1` (stereo not drawn), for which the TGI in assay [16], in assay [17], in assay [1], in [3], in assay [4] and in assay [18] was over 100 µM each time. Besides, the TGI in assay [19], in [5], in assay [6], in assay [7], in [8] and in assay [9] was over 100 µM throughout. The TGI in assay [10], in assay [11], in assay [12], in [13], in assay [14] and in assay [20] was over 100 µM throughout.
Consider `Cc1ccc(NC(=O)CC(=O)n2nc(C)c(N=Nc3ccc(S(=O)(=O)CCOS(=O)(=O)O)cc3)c2C)cc1`, for which the TGI in [16], in assay [17], in assay [1], in assay [2], in assay [3] and in assay [4] was over 100 µM throughout. The TGI in [19], in assay [5], in [6], in assay [7], in assay [9] and in assay [10] was over 100 µM throughout. For the same compound, the TGI in [11], in assay [12], in assay [14], in assay [15] and in assay [20] was over 100 µM in each case.
